Laboratory results published in US20260256789A1, “METHODS FOR TREATMENT OF CANCER” (Frontier Medicines Corporation, priority 2022, published 2026).

Biological target: T1, KRAS G12C (GMPPNP-loaded) and cRAF Ras-binding domain (Homo sapiens, UniProt P01116, C118S/C51S/C80L/G12C)
T1 construct: truncated version comprising amino acids 1-169
Experiment: Inhibition of KRAS G12C and cRAF binding (AlphaScreen)
Conditions: KRAS G12C preloaded with GTP analogue GMPPNP, 2 hours preincubation
Outline: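 Compounds (10-point, 1:3 from 50 μM; 2% DMSO) were incubated 2 h at room temperature with 0.5 nM GMPPNP-preloaded truncated Cys-light KRAS G12C, then 60-90 min with 0.75 nM GST-RBD of cRAF and AlphaScreen beads. Signal at 570 nm gave IC50 by 4-parameter regression, and a biotin-AviTag-GST counter assay excluded interference with the AlphaScreen readout.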

T1 sequence (P01116 1-169 isoform P01116-2 G12C/C51S/C80L/C118S): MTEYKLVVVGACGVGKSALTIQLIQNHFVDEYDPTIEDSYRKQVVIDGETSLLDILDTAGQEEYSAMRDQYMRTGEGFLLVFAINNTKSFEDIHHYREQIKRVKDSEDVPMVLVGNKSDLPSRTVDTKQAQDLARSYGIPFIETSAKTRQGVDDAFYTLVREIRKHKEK

Structure (SMILES)	IC50 [nM]
Cc1noc(/C=C/C(=O)N2CC[C@@H](N(C)c3nc(OC[C@@]45CCCN4C[C@H](F)C5)nc4c(F)c(-c5nc(N)cc6cccc(Cl)c56)ncc34)C2)n1 [Example 150, (E)-1-((R)-3-((7-(3-amino-8-chloroisoquinolin-1-yl)-8-fluoro-2-(((2R,7aS)-2-fluorotetrahydro-1H-pyrrolizin-7a(5H)-yl)methoxy)pyrido[4,3-d]pyrimidin-4-yl)(methyl)amino)pyrrolidin-1-yl)-3-(3-methyl-1,2,4-oxadiazol-5-yl)prop-2-en-1-one]	< 10
Cc1cc(N)nc(-c2ncc3c(N(C)[C@@H]4CCN(C(=O)/C=C/[C@H]5CCN5C)C4)nc(OC[C@@]45CCCN4C[C@H](F)C5)nc3c2F)c1C(F)(F)F (single isomer, unassigned) [Example 26]	< 10
CN(c1nc(OCC23CCCN2CCC3)nc2c(F)c(-c3nc(N)cc4cccc(F)c34)ncc12)[C@@H]1CCN(C#N)C1 [Example 70, (R)-3-((7-(3-amino-8-fluoroisoquinolin-1-yl)-8-fluoro-2-((hexahydro-1H-pyrrolizin-7a-yl)methoxy)pyrido[4,3-d]pyrimidin-4-yl)(methyl)amino)pyrrolidine-1-carbonitrile]	100 to 500
C=CC(=O)N1CC[C@@H](N(C)c2nc(OC[C@@]34CCCN3C[C@H](F)C4)nc3c(F)c(-c4nccc5cccc(Cl)c45)ncc23)C1 [Example 209]	≥ 500
Cc1nccc(/C=C/C(=O)N2CC[C@@H](N(C)c3nc(OC[C@@]45CCCN4C[C@H](F)C5)nc4c(F)c(-c5cccc(Cl)c5C5CC5)ncc34)C2)n1 [Example 221]	100 to 500
C=CC(=O)N1CC[C@@H](N(C)c2nc(OC[C@@]34CCCN3C[C@H](F)C4)nc3c(F)c(-c4c(C)cc(F)c5[nH]ncc45)ncc23)C1 [Example 232]	≥ 500
C=CC(=O)N1CC[C@@H](N(C)c2nc(OC[C@@]34CCCN3C[C@H](F)C4)nc3c(F)c(-c4c(O)cccc4Cl)ncc23)C1 [Example 229]	≥ 500
CN(C)C/C=C/C(=O)N1CC[C@@H](N(C)c2nc(OC[C@@]34CCCN3C[C@H](F)C4)nc3c(F)c(-c4cc(O)cc(Cl)c4C4CC4)ncc23)C1 [Example 197]	< 10
Cc1cc(N)nc(-c2ncc3c(N(C)[C@@H]4CCN(C(=O)C#CCN(C)C)C4)nc(OC[C@@]45CCCN4C[C@H](F)C5)nc3c2F)c1C(F)(F)F [Example 159]	< 10
C=CC(=O)N1CC[C@@H](N(C)c2nc(OC[C@@]34CCCN3C[C@H](F)C4)nc3c(F)c(-c4nc(N)ccc4C(F)(F)F)ncc23)C1 [Example 46, 1-((R)-3-((7-(6-amino-3-(trifluoromethyl)pyridin-2-yl)-8-fluoro-2-(((2R,7aS)-2-fluorotetrahydro-1H-pyrrolizin-7a(5H)-yl)methoxy)pyrido[4,3-d]pyrimidin-4-yl)(methyl)amino)pyrrolidin-1-yl)prop-2-en-1-one]	100 to 500
C=CC(=O)N1CC[C@@H](N(C)c2nc(OC[C@@]34CCCN3C[C@H](F)C4)nc3c(F)c(-c4nc(N)cc5cccc(F)c45)ncc23)C1 [Example 76, 1-((R)-3-((7-(3-amino-8-fluoroisoquinolin-1-yl)-8-fluoro-2-(((2R,7aS)-2-fluorohexahydro-1H-pyrrolizin-7a-yl)methoxy)pyrido[4,3-d]pyrimidin-4-yl)(methyl)amino)pyrrolidin-1-yl)prop-2-en-1-one]	10 to 100
Cc1cc(N)nc(-c2ncc3c(N(C)CC4CN(C(=O)/C=C/c5nc(C(C)C)no5)C4)nc(OC[C@@]45CCCN4C[C@H](F)C5)nc3c2F)c1C1CC1 [Example 175]	100 to 500
Cc1cc(/C=C/C(=O)N2CC[C@@H](N(C)c3nc(OC[C@@]45CCCN4C[C@H](F)C5)nc4c(F)c(-c5cc(O)cc(Cl)c5C5CC5)ncc34)C2)nc(C)n1 [Example 201]	< 10
C=CC(=O)N1CC[C@@H](N(C)c2nc(OC[C@@]34CCCN3C[C@H](F)C4)nc3c(F)c(-c4scnc4C)ncc23)C1 [Example 183]	≥ 500
C=CC(=O)N1CC[C@@H](N(C)c2nc(OC[C@@]34CCCN3C[C@H](F)C4)nc3c(F)c(-c4ncn5ccccc45)ncc23)C1 [Example 246]	≥ 500
C=CC(=O)N1CC[C@@H](N(C)c2nc(OC[C@@]34CCCN3C[C@H](F)C4)nc3c(F)c(-c4cc(C(F)F)ccc4Cl)ncc23)C1 [Example 251]	≥ 500
C=CC(=O)N1CC[C@@H](N(C)c2nc(OC[C@@]34CCCN3C[C@H](F)C4)nc3c(F)c(-c4cccc(Cl)c4C4CC4)ncc23)[C@H]1C [Example 236]	100 to 500
Cc1noc(/C=C/C(=O)N2CC[C@@H](N(C)c3nc(OC[C@@]45CCCN4C[C@H](F)C5)nc4c(F)c(-c5nc(N)cc(C)c5C5CC5)ncc34)C2)n1 [Example 11, (E)-1-((R)-3-((7-(6-amino-3-cyclopropyl-4-methylpyridin-2-yl)-8-fluoro-2-(((2R,7aS)-2-fluorotetrahydro-1H-pyrrolizin-7a(5H)-yl)methoxy)pyrido[4,3-d]pyrimidin-4-yl)(methyl)amino)pyrrolidin-1-yl)-3-(3-methyl-1,2,4-oxadiazol-5-yl)prop-2-en-1-one]	< 10

Structure (SMILES)	IC50 [nM]
CN(C)CC#CC(=O)N1CC[C@@H](N(C)c2nc(OC[C@@]34CCCN3C[C@H](F)C4)nc3c(F)c(-c4nc(N)cc5cccc(Cl)c45)ncc23)C1 [Example 91]	10 to 100
C=CC(=O)N1CC(CN(C)c2nc(OC[C@@]34CCCN3C[C@H](F)C4)nc3c(F)c(-c4nc(N)cc(C)c4C4CC4)ncc23)C1 [Example 133, 1-(3-(((7-(6-amino-3-cyclopropyl-4-methylpyridin-2-yl)-8-fluoro-2-(((2R,7aS)-2-fluorotetrahydro-1H-pyrrolizin-7a(5H)-yl)methoxy)pyrido[4,3-d]pyrimidin-4-yl)(methyl)amino)methyl)azetidin-1-yl)prop-2-en-1-one]	≥ 500
C=CC(=O)N1CC[C@@H](N(C)c2nc(OCC34CCCN3CCC4)nc3c(F)c(-c4nc(N)cc5cccc(Cl)c45)ncc23)C1 [Example 69, (R)-1-(3-((7-(3-amino-8-chloroisoquinolin-1-yl)-8-fluoro-2-((hexahydro-1H-pyrrolizin-7a-yl)methoxy)pyrido[4,3-d]pyrimidin-4-yl)(methyl)amino)pyrrolidin-1-yl)prop-2-en-1-one]	100 to 500
C=CC(=O)N1CC[C@@H](N(C)c2nc(OC[C@@]34CCCN3C[C@H](F)C4)nc3c(F)c(-c4cncnc4C4CC4)ncc23)C1 [Example 260]	≥ 500
Cc1cc(/C=C/C(=O)N2CC(CN(C)c3nc(OC[C@@]45CCCN4C[C@H](F)C5)nc4c(F)c(-c5cc(O)cc(Cl)c5C5CC5)ncc34)C2)nc(C)n1 [Example 204]	100 to 500
Cc1cc(N)nc(-c2ncc3c(N(C)[C@@H]4CCN(C(=O)C#CCN5CCOCC5)C4)nc(OC[C@@]45CCCN4C[C@H](F)C5)nc3c2F)c1C(F)(F)F [Example 101]	10 to 100
CN(c1nc(OC[C@@]23CCCN2C[C@H](F)C3)nc2c(F)c(-c3cccc(Cl)c3C3CC3)ncc12)[C@@H]1CCN(C(=O)/C=C/CN2CC[C@@H](F)C2)C1 [Example 262]	10 to 100
Cc1cc(N)nc(-c2ncc3c(N(C)CC4CN(C(=O)/C=C/c5nc(C(C)C)no5)C4)nc(OC[C@@]45CCCN4C[C@H](F)C5)nc3c2F)c1C(F)(F)F [Example 153]	< 10
Cc1cc(N)nc(-c2ncc3c(N(C)[C@@H]4C[C@@H](C)N(C#N)C4)nc(OC[C@@]45CCCN4C[C@H](F)C5)nc3c2F)c1C(F)(F)F (single isomer, unassigned) [Example 40]	10 to 100
C=CC(=O)N1CC[C@@H](N(C)c2nc(OC[C@@]34CCCN3C[C@H](F)C4)nc3c(F)c(-c4ccccc4C(F)F)ncc23)C1 [Example 181]	≥ 500
Cc1noc(/C=C/C(=O)N2CC[C@@H](N(C)c3nc(OC[C@@]45CCCN4C[C@H](F)C5)nc4c(F)c(-c5nc(N)cc(C)c5C)ncc34)C2)n1 [Example 52, (E)-1-((R)-3-((7-(6-amino-3,4-dimethylpyridin-2-yl)-8-fluoro-2-(((2R,7aS)-2-fluorotetrahydro-1H-pyrrolizin-7a(5H)-yl)methoxy)pyrido[4,3-d]pyrimidin-4-yl)(methyl)amino)pyrrolidin-1-yl)-3-(3-methyl-1,2,4-oxadiazol-5-yl)prop-2-en-1-one]	10 to 100
C=CC(=O)N1CC[C@@H](N(C)c2nc(OC[C@@]34CCCN3C[C@H](F)C4)nc3c(F)c(-c4cccn5cncc45)ncc23)C1 [Example 219]	≥ 500
C=CC(=O)N1CC[C@@H](N(C)c2nc(OC[C@@]34CCCN3C[C@H](F)C4)nc3c(F)c(-c4cc(F)cc(F)c4C4CC4)ncc23)C1 [Example 249]	≥ 500
Cc1cc(N)nc([C@@H]2Cc3nc(OC[C@@]45CCCN4C[C@H](F)C5)nc(N(C)[C@@H]4CCN(C(=O)/C=C/c5nc(C(C)(C)O)no5)C4)c3C[C@H]2C)c1C(F)(F)F [Example 89, (E)-1-((R)-3-(((6R,7R)-7-(6-amino-4-methyl-3-(trifluoromethyl)pyridin-2-yl)-2-(((2R,7aS)-2-fluorotetrahydro-1H-pyrrolizin-7a(5H)-yl)methoxy)-6-methyl-5,6,7,8-tetrahydroquinazolin-4-yl)(methyl)amino)pyrrolidin-1-yl)-3-(3-(2-hydroxypropan-2-yl)-1,2,4-oxadiazol-5-yl)prop-2-en-1-one]	< 10
C=CC(=O)N1CC[C@@H](N(C)c2nc(OC[C@@]34CCCN3C[C@H](F)C4)nc3c(F)c(-c4cccc(Cl)c4C(F)(F)F)ncc23)C1 [Example 255]	100 to 500
C=CC(=O)N1CC(CN(C)c2nc(OCC34CCCN3CCC4)nc3c2C[C@H](C)[C@@H](c2nc(N)cc(C)c2C(F)(F)F)C3)C1 [Example 109]	≥ 500
Cc1cc(N)nc(-c2ncc3c(N(C)CC4CN(C(=O)/C=C/CN5CCOCC5)C4)nc(OC[C@@]45CCCN4C[C@H](F)C5)nc3c2F)c1C(F)(F)F [Example 129]	100 to 500
